Experimental data published in a melting point compilation (Tetko et al.; mined from patent text by program, amines drawn as free bases though some values may be those of a salt).

Compound CCOC(=O)c1cc2ccc(Oc3ccc(N)cc3)cc2oc1=O has a melting point of 136 to 138 °C. In the case of CC(C)(C)c1cc(SCCC(=O)NC2C3CC4CC(C3)CC2C4)cc(C(C)(C)C)c1O (configuration not stated), the melting point is reported as 156 °C. Compound Cc1oc(-c2ccccc2)nc1COc1ccc2cc(CCCC3SC(=O)NC3=O)ccc2c1 (configuration not stated) has a melting point of 208 to 209 °C. In the case of Cc1ccccc1-n1c(-c2cc(-c3ccc(S(C)(=O)=O)cc3)c(N3CCOCC3)s2)nc2ccccc2c1=O, the melting point is reported as 255 to 258 °C. COCCc1sc2ncnc(N)c2c1-c1ccc(N)cc1 showed a melting point of 144 to 146 °C. O=C(O)c1ccc(COc2ccc3c(c2)CCC(CCN2CCCCC2)C3)cc1 (configuration not stated) showed a melting point of 105 to 108 °C. For COc1ccc(C(=O)Nc2nc3ccc(N(C)C)cc3c(NCc3cccs3)c2C#N)cc1, the melting point was 163 °C. COC(=O)CCC(=O)N[C@@H](CO)c1ccccc1 gave a melting point of 59 to 61 °C. In the case of Cc1c(C)c(N2CCN(C(=O)OC(C)(C)C)CC2)c(C)c2c1OC(C)(C)C2N1CCCCC1 (configuration not stated), the melting point is reported as 167 to 168 °C. Work on CC(C)(C)OC(=O)NCc1ccccc1-c1ccccc1C(=O)O yielded a melting point of 136 °C. Cc1nc2c(C=O)cccn2c1[N+](=O)[O-] gave a melting point of 182 to 184 °C. Compound CN(CCc1ccc([N+](=O)[O-])cc1)Cc1ccc2cc([N+](=O)[O-])ccc2n1 has a melting point of 104 to 105 °C. Work on CON1CC(c2ccc(OCc3ccccc3)cc2)CC1=O (configuration not stated) yielded a melting point of 92 to 97 °C. COc1ccc(C(Sc2cc(Oc3ccc(F)cc3)ccc2N)C(O)C(=O)O)cc1 (configuration not stated) showed a melting point of 190 to 193 °C. Work on Cn1cc(S(C)=O)c(=O)c2scc(-c3ccccc3)c21 (configuration not stated) yielded a melting point of 206 to 209 °C. In the case of CC(N)Cn1ncc2ccc3c(c21)CC(O)CO3 (configuration not stated), the melting point is reported as 46 to 51 °C. In the case of COC1CC(n2cc(C=CBr)c(=O)[nH]c2=O)OC1CCl (configuration not stated), the melting point is reported as 145 °C. For Cc1ccccc1-c1ccc(Cl)cc1C#N, the melting point was 62 to 65 °C. N#CC1=C(C2CCNCC2)Nc2n[nH]cc2C1c1ccccc1Cl (configuration not stated) gave a melting point of 221 °C. Work on CCCc1nc(C)cc(=O)n1CCOc1ccc(CC2SC(=O)NC2=O)cc1 (configuration not stated) yielded a melting point of 144 to 146 °C. CCCCN(CCCC)C(=O)Nc1cccc(Br)c1 gave a melting point of 80 to 81 °C. Compound O=[N+]([O-])c1ccc(OCC=CCBr)c([N+](=O)[O-])c1 has a melting point of 55 to 57 °C. Compound CCc1nc2c(N)nc3cc(CCC#N)ccc3c2n1CC1CCOCC1 has a melting point of 273 to 275 °C. In the case of O=C(O)c1ccc(C=NS(=O)(=O)c2ccc(Cl)cc2)cc1, the melting point is reported as > 245 °C. Work on Cn1cnc2c(=O)n(-c3ccccc3)c3ncccc3c21 yielded a melting point of 262 °C. For O=C1c2c(F)ccc(F)c2C(=O)N1CCN1CCC(c2noc3cc(F)ccc23)CC1, the melting point was 144 to 145 °C. Work on Cc1nc(Cl)c2c(c1O)COC2(C)c1ccccc1 (configuration not stated) yielded a melting point of 246 °C. Compound CCc1c(-c2ccc(OCc3ccccc3)cc2)c2cc(C(=O)OC)c3c(NC(C)=O)ccc1n23 has a melting point of 210 to 213 °C. In the case of COC(=O)Cc1cn(Cc2ccccc2)nc1OCCCc1cc(O)nn1Cc1ccc(Cl)cc1Cl, the melting point is reported as 106 to 107 °C. CC(C)(C)COc1ccc(-n2ncc(C(=O)O)c2Cl)cc1C#N gave a melting point of 212 °C. With COC(=O)Cc1ccccc1S(=O)(=O)NC(=S)Nc1nc(OC)nc(OC)n1 the melting point was 164 to 168 °C. Work on Cc1cc(C(=O)C(C)N2CCC(O)(c3ccccc3)CC2)ccc1OCc1ccccc1 (configuration not stated) yielded a melting point of 98 to 99 °C. In the case of c1cc(CCCCCc2nnn[nH]2)n2cncc2c1, the melting point is reported as 149 to 150 °C. With COC(=O)NC(C#N)Cc1ccc(OC)c(OC2CCCC2)c1 (configuration not stated) the melting point was 121 to 122 °C. O=C(O)CNC(=O)c1c(F)cccc1[N+](=O)[O-] showed a melting point of 148 to 150 °C. With Cc1cc(-c2nc3ccc(CCN4CCOCC4)cc3c(=O)[nH]2)cc(C)n1 the melting point was 248 to 249 °C. Work on CCCCCCCC/C=C\CCCCCCCC(O)CCCNC(=O)CCNC(C)=O (configuration not stated) yielded a melting point of 103 to 108 °C. With COc1cc(CNC(=S)NC(COC(=O)C(C)(C)C)Cc2ccc(C(C)(C)C)cc2)ccc1O (configuration not stated) the melting point was 117 to 119 °C. Compound CC(O)c1ccc(-c2ccc(O)cc2)cc1 (configuration not stated) has a melting point of 159 to 160 °C. For OC[C@@H](O)CCOc1ccc(-c2nc3c4ccccc4c4ccccc4c3[nH]2)cc1, the melting point was 263 to 265 °C. For CC(C)(C(=O)C=Cc1ccc(Cl)cc1Cl)C1OCCO1, the melting point was 92 to 93 °C. With CNC(=S)N1CCC(c2nn(-c3ccc(F)cc3)c3ccccc23)CC1 the melting point was 179 to 181 °C. With Cc1ccccc1CNc1nc(Cl)nc2ccccc12 the melting point was 215 to 217 °C. For CCOC(=O)c1[nH]c2cc(Cl)cc(Cl)c2c1NCCC(=O)c1ccccc1Cc1ccccc1, the melting point was 208 to 209 °C. COc1ccccc1C(=O)c1cccc(C#N)c1 gave a melting point of 180 °C. Compound COc1ccc(C(=O)Oc2ccc(C(=O)O)cc2CO)cc1C12CC3CC(CC(C3)C1)C2 has a melting point of 214 to 216 °C. Oc1ccc(Cn2ccn(C3CCc4ccccc4C3)c2=S)cc1O (configuration not stated) gave a melting point of 173 to 174 °C. Compound CN(CC#N)S(=O)(=O)c1cc(-n2c(=O)cc(C(F)(F)F)n(C)c2=O)c(F)cc1Cl has a melting point of 155 to 157 °C. For COc1cc2c3c4c(c(-c5ccccc5)cc3n(C)c2cc1OS(=O)(=O)C(F)(F)F)C(=O)NC4=O, the melting point was 244 to 246 °C. Work on N#CNC(CSCc1ccccn1)=NCCO yielded a melting point of 68 to 69 °C. Work on CCCc1c(COc2ccc(-c3nnn[nH]3)cc2)ccc(C(C)=O)c1O yielded a melting point of 203 to 205 °C. Compound Cc1cccc(-c2nc3ccc(OCCN4CCN(C)CC4)cc3n2Cc2ccccc2)c1 has a melting point of 91 °C. Compound CCOC(Cc1ccc(NC/C=C/c2ccc(OS(C)(=O)=O)cc2)cc1)C(=O)O (configuration not stated) has a melting point of 146 to 148 °C. O=C1CC2c3ccccc3CCN2C2CCCCC12 (configuration not stated) showed a melting point of 112 to 140 °C. CCOC(=O)c1cc(=O)c2cc3c(=O)cc(C(=O)OCC)n(CC)c3cc2o1 gave a melting point of 193 to 194 °C. In the case of CN(C)S(=O)(=O)c1cccc(-c2nc(N)nc(N)n2)c1, the melting point is reported as 250 to 251 °C. O=C1CCC(C(=O)O)(c2ccc(F)cc2)CC1 showed a melting point of 117 to 122 °C. With O=C1C=C(Oc2ccc(-c3ccccc3)cc2)C(O)O1 (configuration not stated) the melting point was 192 to 193 °C. Work on COCCNC(=S)n1nc(Oc2c(Cl)cc(C(F)(F)F)cc2Cl)cc1C yielded a melting point of 83 to 86 °C. In the case of CN(C1CCS(=O)(=O)C1)S(=O)(=O)c1ccc(Nc2nccc(Nc3ccc(F)cc3)n2)cc1 (configuration not stated), the melting point is reported as 236 to 240 °C. O=S1(=O)N=CN(C2CC2)c2cc(Br)c(F)cc21 gave a melting point of 218 to 219 °C. N#Cc1ccncc1OC1SCC(O)C(O)C1O (configuration not stated) gave a melting point of 157 °C. CCOC1CCC(=O)N1S(=O)(=O)c1ccc(O)cc1 (configuration not stated) showed a melting point of 162 to 163 °C. O=C(O)c1ccccc1-c1ccc(CNc2nc(Cl)nc3ccc(Cl)cc23)cc1 gave a melting point of 210 to 240 °C. In the case of COc1cc2nc(N)nc(-c3cccc(I)c3)c2cc1OC, the melting point is reported as 235 to 242 °C. COC(=O)Nc1cc(C(C)(C)C)on1 gave a melting point of 55.5 to 58.5 °C. In the case of COc1cc(C(=N)N)ccc1O, the melting point is reported as > 240 °C. With CC(C)(C)Nc1c(NCc2ccccc2F)c(=O)c1=O the melting point was 260 to 262 °C. In the case of COc1cccc2c1CCc1ccn(CCNC(C)=O)c1-2, the melting point is reported as 133 °C. CC(C)(C)c1cc(C(=O)c2ccc(Cl)cc2)cc(CN2CCOCC2)c1O gave a melting point of 165 to 166 °C. For CCc1ccc(C(N)=O)c([N+](=O)[O-])c1, the melting point was 175 °C. CCOc1ccc(C(=O)CCC(=O)OC)cc1OCC gave a melting point of 84 to 85 °C. In the case of COc1ccc(CC2NCCOc3c2cnn(C)c3=O)cc1 (configuration not stated), the melting point is reported as 92 to 93 °C. CC(=O)Nc1cccc(-c2ccc3nc(-c4cccnc4N)n(-c4ccc(CNC(=O)c5ccccc5)cc4)c3n2)c1 showed a melting point of 205 to 208 °C. O=C1CC(O)CC(/C=C/c2ccc(Cl)c(Cl)c2)O1 (configuration not stated) showed a melting point of 92 to 94 °C. COC1=C(OC)C(=O)NC1=O gave a melting point of 126 to 127 °C. O=C1[C@@H]2[C@H](O)CCN2C(=O)N1c1ccc(Br)c2ccccc12 (relative stereo) showed a melting point of 204 to 206 °C. For CCCCOC(=O)c1ccc(OC(=O)c2ccc(C(=O)Oc3ccc(C(=O)OCCCC)cc3)cc2)cc1, the melting point was 128 to 131 °C. Cn1ncc2[nH]c3ccc(Cc4ccccc4Cl)cc3c(=O)c21 gave a melting point of 278 °C. With O=c1[nH]c2cc(Cl)ccc2c(O)c1-c1ccc(I)cc1 the melting point was > 350 °C. In the case of CC(=O)NC1=NN(c2ccc(C(=O)C(F)(F)F)cc2)CC1, the melting point is reported as 243 to 244 °C. CN(Cc1ccc(=O)n(Cc2ccc(Cl)cc2)c1)c1ccccc1 gave a melting point of 106 °C. CC(=O)n1cc(O)c2cc(Cl)ccc21 showed a melting point of 186 to 188 °C. With COc1ccc2c(c1)C(CC#N)=CCC2 the melting point was 48 to 50 °C. O=C1N(N2CCOCC2)c2ccccc2C1(Cc1ccccn1)Cc1ccccn1 showed a melting point of 157 to 159 °C. In the case of Fc1ccc(-n2ncc3c2-c2ccccc2C3)cc1, the melting point is reported as 104 to 105 °C. Work on O=C1CC(c2ccc3oc4c(c3c2)CCCC4)CC(=O)N1 yielded a melting point of 184 to 193 °C. With COc1ccc(S(=O)(=O)N2C(=O)C(CC(=O)N3CCN(c4ccccn4)CC3)(c3ccccc3Cl)c3cc(C)ccc32)c(OC)c1 (configuration not stated) the melting point was 239 °C. Compound O=C(O)/C(=N/OCc1ccccc1)c1ccc(OCCOc2ccc3ccccc3c2)s1 has a melting point of 103 to 104 °C. For COC(=O)CCCc1nc2[nH]c3ccccc3c2c(=O)[nH]1, the melting point was 258 °C. Cc1nc2cc3c(cc2c(=O)[nH]1)C(N(C)c1ccc(C(=O)NC(CCc2nnn[nH]2)C(=O)O)nc1)CC3 (racemic) gave a melting point of 248 to 250 °C. Work on O=C(CBr)c1ccc(-c2ccc(F)cc2)cc1 yielded a melting point of 102 to 103 °C. For O=C(O)Cc1ccc(SCCNC(=O)C2Cc3ccccc3N2S(=O)(=O)c2ccc(-c3cccc(C(F)(F)F)c3)cc2)c(Cl)c1 (configuration not stated), the melting point was 70 °C. Work on CC(=O)O[C@@H]1NC(=O)[C@H]1NC(=O)OCc1ccccc1 yielded a melting point of 110 to 113 °C. Oc1ccc(Cl)cc1CN1CCCCC1 gave a melting point of 53 to 56 °C. Work on Clc1cccc(-c2nnnn2-c2cccnc2)c1Cl yielded a melting point of 124 to 126 °C. O=C1C2CCCC2=Nc2ccccc2N1Cc1ccc(Cl)cc1 (configuration not stated) gave a melting point of 155 to 157 °C. Nc1ccc(N2CCOCC2)c(C(F)(F)F)c1 showed a melting point of 149 to 151 °C. Compound CS(=O)(=O)c1ccc(-c2c(Br)c3cccccc-3c2-c2ccccc2)cc1 has a melting point of 172 to 173 °C. In the case of CCCC1(C(=O)O)CCCCC1, the melting point is reported as 58 to 59 °C. Compound CN(C)CCNC(=O)c1cccc(-c2cccc3cc(Cc4cc(F)cc(Cl)c4)sc23)c1 has a melting point of 126 to 127 °C. With CCOC(Nc1ccc(C(=O)O)cc1)C(=O)c1ccc(-c2ccccc2)cc1 (configuration not stated) the melting point was 179 °C.
